Our source for the IC50 values is BindingDB's records for patent US11834430 (Agency For Science, Technology and Research, 2023).

pIC50: −log10 of the molar value.

In the test the target is Protein-S-isoprenylcysteine O-methyltransferase (Homo sapiens, UniProt O60725). As to the kind of experiment: ICMT Biochemical Assay. The protocol:
An ICMT enzymatic assay was developed using Promega's Methyltransferase-GloTMreagents. In the assay, ICMT catalyzes the methylation of the N-Acetyl-S-farnesyl-L-cysteine by transferring a methyl group from SAM to the farnesylated cysteine and further converts the SAM to SAH. The methyltransferase activity is measured based on the amount of SAH produced from the reaction through the use of coupling enzymes that convert the SAH to ATP. […] A final concentration of 2.0 μM and 20 μM of SAM and peptide were added and further incubated for 90 minutes at room temperature before adding the MTase Glo and detection reagent. Reaction signals were detected using microplate readers on luminescent mode (Satire Tecan).

Chain of Protein-S-isoprenylcysteine O-methyltransferase (O60725 whole entry): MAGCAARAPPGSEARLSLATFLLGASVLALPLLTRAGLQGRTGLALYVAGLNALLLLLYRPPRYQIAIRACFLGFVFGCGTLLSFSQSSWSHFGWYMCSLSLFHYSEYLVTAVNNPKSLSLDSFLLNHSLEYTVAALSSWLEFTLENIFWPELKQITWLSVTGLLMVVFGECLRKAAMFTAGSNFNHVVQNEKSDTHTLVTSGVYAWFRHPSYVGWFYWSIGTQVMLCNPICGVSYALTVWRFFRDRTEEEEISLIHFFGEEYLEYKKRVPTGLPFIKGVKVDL

On to `COc1cc(Cl)ccc1OCCOc1cccc(-n2ccnc2C)c1` [US11834430, Compound 45], for which the pIC50 (usually the negative decadic logarithm of the IC50, by convention in mol/L) is 7.12.

`N#Cc1ccc(OCCOc2ccc(F)c(-c3ccnn3C3CC3)c2)c(F)c1` [US11834430, Compound 88] showed a negative logarithm of the IC50 (pIC50) of 7.74.
